Measured values from publication PMC8173610 (Biochemistry, 2021).

Target: microtubule-associated protein tau (Homo sapiens, UniProt P10636)
Type: biochemical

Sequence of microtubule-associated protein tau (P10636 1-441 isoform P10636-8): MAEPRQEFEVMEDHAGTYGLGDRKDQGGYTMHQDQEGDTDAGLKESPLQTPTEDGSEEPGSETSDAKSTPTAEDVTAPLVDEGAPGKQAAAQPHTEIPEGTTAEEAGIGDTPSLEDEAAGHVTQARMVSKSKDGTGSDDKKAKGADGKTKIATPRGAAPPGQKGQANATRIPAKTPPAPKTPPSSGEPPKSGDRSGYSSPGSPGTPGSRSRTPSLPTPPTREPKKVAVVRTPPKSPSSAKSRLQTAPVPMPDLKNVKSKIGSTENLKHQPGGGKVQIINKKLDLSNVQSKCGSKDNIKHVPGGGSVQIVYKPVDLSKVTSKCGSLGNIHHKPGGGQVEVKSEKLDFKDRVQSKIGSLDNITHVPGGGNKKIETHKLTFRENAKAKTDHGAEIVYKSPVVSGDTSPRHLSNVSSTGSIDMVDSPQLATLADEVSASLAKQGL

## CCCCCCCCCc1cc2cc(O)c(C)c(O)c2cn1 [ANTC-15, 7-methyl-3-nonylisoquinoline-6,8-diol]
  IC50: 35 µM
